Source: paper PMC4703101 (Chemical research in toxicology, 2015)
Counter-ions that a name gives are not always drawn. Marks after values point to notes of the source that are not given here.

Tests used:
[1] = tested on: Liver microsomal P450; assay: Liver microsomal P450 oxidation; assay type: in vitro ADME, mouse; conditions: for P450 Oxidation: substrate 100 μM (AαC, PhIP, MeIQx), 10 μM (MROD), mean and SD, n ≥3, N.D. = not detected; for levels of metabolism, fold greater than AαC: 100 µM substrate
[2] = tested on: Liver microsomal P450; assay: Liver microsomal P450 oxidation; assay type: in vitro ADME; conditions: Human liver microsome (H112); substrate 100 μM (AαC, PhIP, MeIQx), 10 μM (MROD)
[3] = tested on: DNA; conditions: liver, kidney, colon, and mammary gland of female Cyp1a2-null mice; cited from earlier work
[4] = tested on: DNA; conditions: cited from earlier work
[5] = tested on: P450 1A2; conditions: human hepatocytes in primary culture pretreated with furafylline; cited from earlier work
[6] = Pharmacokinetics of plasma AαC and its metabolites after oral gavage of AαC; assay type: in vivo, mice (C57BL/6 background; WT, LCN, IECN); conditions: for AUC 0-24 h in plasma, fold greater in LCN mice than in WT mice / Cmax in plasma, fold greater in LCN mice than in WT mice / clearance rate, fold lower in LCN mice than in WT mice: for AαC also vs IECN; for AUC0-24h / CL/F / Cmax / Tmax / t1/2 / AUC0-6h / AUC(0-t) / half-life: plasma
[7] = tested on: Aldehyde Oxidase; assay: Aldehyde oxidase assay, liver cytosol; conditions: WT and LCN liver cytosol
[8] = target: Xanthine Dehydrogenase (Mus musculus, UniProt Q00519); assay: Xanthine dehydrogenase assay, liver cytosol; assay type: in vitro ADME; conditions: WT and LCN liver cytosol
Xanthine Dehydrogenase, sequence (Q00519 whole entry): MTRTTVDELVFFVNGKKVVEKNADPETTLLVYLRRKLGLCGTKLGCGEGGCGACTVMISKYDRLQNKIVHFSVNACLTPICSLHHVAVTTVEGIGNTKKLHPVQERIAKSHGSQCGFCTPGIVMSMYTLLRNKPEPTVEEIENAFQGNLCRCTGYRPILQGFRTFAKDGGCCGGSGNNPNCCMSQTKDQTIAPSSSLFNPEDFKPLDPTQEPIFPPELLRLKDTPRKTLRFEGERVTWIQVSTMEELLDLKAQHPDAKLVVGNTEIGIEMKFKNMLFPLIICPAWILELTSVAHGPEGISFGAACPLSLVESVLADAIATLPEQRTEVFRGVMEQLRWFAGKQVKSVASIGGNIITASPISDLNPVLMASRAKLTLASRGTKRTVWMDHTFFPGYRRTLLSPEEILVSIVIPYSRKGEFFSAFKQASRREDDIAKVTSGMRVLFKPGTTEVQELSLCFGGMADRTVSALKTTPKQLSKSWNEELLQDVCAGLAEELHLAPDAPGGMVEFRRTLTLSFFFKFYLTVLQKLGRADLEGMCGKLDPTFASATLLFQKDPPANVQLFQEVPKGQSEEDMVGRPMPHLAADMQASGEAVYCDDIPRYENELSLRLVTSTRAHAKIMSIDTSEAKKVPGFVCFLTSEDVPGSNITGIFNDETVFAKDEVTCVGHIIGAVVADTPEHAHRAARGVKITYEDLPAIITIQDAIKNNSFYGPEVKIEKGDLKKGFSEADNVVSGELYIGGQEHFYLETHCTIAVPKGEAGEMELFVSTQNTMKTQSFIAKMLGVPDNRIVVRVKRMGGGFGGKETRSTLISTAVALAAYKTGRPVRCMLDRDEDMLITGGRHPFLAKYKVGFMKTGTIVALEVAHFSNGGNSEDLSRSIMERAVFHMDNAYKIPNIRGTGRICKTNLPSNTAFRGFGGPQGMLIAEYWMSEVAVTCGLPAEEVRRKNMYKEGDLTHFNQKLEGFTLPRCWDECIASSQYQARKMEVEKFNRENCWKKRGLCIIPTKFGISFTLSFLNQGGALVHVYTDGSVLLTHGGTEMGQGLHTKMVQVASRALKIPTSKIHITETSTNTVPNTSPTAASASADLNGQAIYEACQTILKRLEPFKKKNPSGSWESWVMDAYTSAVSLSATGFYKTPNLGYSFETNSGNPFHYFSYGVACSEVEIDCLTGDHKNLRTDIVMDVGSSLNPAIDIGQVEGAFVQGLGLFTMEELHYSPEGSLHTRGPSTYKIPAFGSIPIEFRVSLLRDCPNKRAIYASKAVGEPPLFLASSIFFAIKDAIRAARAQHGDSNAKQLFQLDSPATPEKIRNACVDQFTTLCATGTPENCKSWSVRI

[9] = tested on: Flavin monooxygenase (FMO); assay: Microsomal flavin monooxygenase; conditions: WT and LCN liver microsomes
[10] = IECN mice, AαC 13.6 mg/kg oral gavage, mean ± S.D. n=5
[11] = LCN mice, AαC 1.36 mg/kg oral gavage, mean ± S.D. n=5
[12] = LCN mice, AαC 13.6 mg/kg oral gavage, mean ± S.D. n=5
[13] = WT mice, AαC 1.36 mg/kg oral gavage, mean ± S.D. n=5
[14] = WT mice, AαC 13.6 mg/kg oral gavage, mean ± S.D. n=5

For `COc1ccc2nc3ccc(=O)cc-3oc2c1` [MROD, methoxyresorufin], the “MROD activity, fold decrease in LCN liver microsomes compared to WT microsomes” value [1] was “greater than 10 fold”.

With `Cc1cnc2ccc3c(nc(N)n3C)c2n1` [MeIQx, 2-amino-3,8-dimethylimidaz[4,5-f]quinoxaline] the “P450 Oxidation” value ([1]; LCN mouse liver microsomes) was 67 ± 44 pmol/min/mg protein, the “levels of metabolism, fold greater than AαC” value ([1]; WT mouse liver microsomes) was 3 to 4 fold and the “P450 Oxidation” value ([1]; WT mouse liver microsomes) was 404 ± 155 pmol/min/mg protein. The “P450 Oxidation” value [2] was 1010 ± 155 pmol/min/mg protein.

For `Cn1c(N)nc2ncc(-c3ccccc3)cc21` [PhIP, 2-amino-1-methyl-6-phenylimidazo[4,5-b]pyridine], the “levels of metabolism, fold greater than AαC” value ([1]; WT mouse liver microsomes) is listed as 3 to 4 fold, the “P450 Oxidation” value ([1]; WT mouse liver microsomes) is listed as 362 ± 120 pmol/min/mg protein and the “levels of DNA adducts in Cyp1a2-null vs WT mice” value [3] is listed as “ten-fold lower”. For the same molecule, the “PhIP-DNA adduct levels in liver of RCN compared to WT mice” value [4] was “unchanged” and the “P450 Oxidation” value [2] was 1440 ± 280 pmol/min/mg protein.

In the case of `Cc1nc2c([nH]1)c(=O)n(C)c(=O)n2Cc1ccco1` [furafylline], the “inhibition of dG-C8-AαC adduct formation” value [5] is listed as “only partially inhibited”.

In the case of `Nc1nc2[nH]c3ccccc3c2cc1OS(=O)(=O)O` [AαC-3-OSO3H, 2-amino-9H-pyrido[2,3-b]indol-3-yl sulfate], the “Cmax, fold higher in LCN mice than in WT mice” value ([6]; AαC 1.36 mg/kg oral gavage) is reported as roughly 2 fold, the “AUC 0-24 h in plasma, fold greater in LCN mice than in WT mice” value (“AUC 0-24 h in plasma, fold greater” for short) ([6]; AαC 13.6 mg/kg oral gavage) is reported as “about 1.6 fold” and the AUC0-24h [6, 10] is reported as 5310 ± 1650 ng·h/mL. For the same molecule, the CL/F [6, 10] was 77.0 ± 20.3^c ml/h, the Cmax [6, 10] was 913 ± 248 ng/mL and the Tmax [6, 10] was 1.8 ± 1.2 h. For the same molecule, the t1/2 [6, 10] was 2.8 ± 0.2 h, the AUC0-6h [6, 11] was 438 ± 118^a h*ng/ml and the CL/F [6, 11] was 76.0 ± 39.2^b ml/h. The Cmax [6, 11] was 177 ± 73.0^a ng/ml, the Tmax [6, 11] was 1.0 ± 0 h and the t1/2 [6, 11] was 2.5 ± 1.7 h. The AUC0-24h [6, 12] was 6140 ± 1330^b h*ng/ml, the CL/F [6, 12] was 64.3 ± 13.6^a ml/h and the Cmax [6, 12] was 586 ± 128 ng/mL. It also gave a Tmax [6, 12] of 3.5 ± 2.3 h, a t1/2 [6, 12] of 3.1 ± 0.2 h and an AUC0-6h [6, 13] of 165.6 ± 47.6 ng·h/mL. It also gave a CL/F [6, 13] of 180 ± 140 mL/h, a Cmax [6, 13] of 74.6 ± 31.5 ng/mL and a Tmax [6, 13] of 1.0 ± 0 h. For the same molecule, the t1/2 [6, 13] was 5.9 ± 6.1 h, the AUC0-24h [6, 14] was 3700 ± 911 ng·h/mL and the CL/F [6, 14] was 107 ± 27.9 mL/h. It also gave a Cmax [6, 14] of 669 ± 251 ng/mL, a Tmax [6, 14] of 1.8 ± 1.3 h and a t1/2 [6, 14] of 3.4 ± 1.2 h.

For `Nc1ccc2c(n1)[nH]c1ccccc12` [AαC, 2-Amino-9H-pyrido[2,3-b]indole], the “AαC metabolism, if present (limit of detection by HPLC-UV)” value [7] was less than 50 pmol/min/mg protein, the “P450 Oxidation” value ([1]; WT mouse liver microsomes) was 103 ± 33 pmol/min/mg protein and the “AαC metabolism, if present (limit of detection by HPLC-UV)” value [8] was less than 50 pmol/min/mg protein. The “AαC metabolism, if present (limit of detection by HPLC-UV)” value [9] was less than 50 pmol/min/mg protein, the “P450 Oxidation” value [2] was 820 ± 60 pmol/min/mg protein and the “AUC 0-24 h in plasma, fold greater” value ([6]; AαC 13.6 mg/kg oral gavage) was “about 20 fold”. For the same molecule, the “Cmax in plasma, fold greater in LCN mice than in WT mice” value ([6]; AαC 13.6 mg/kg oral gavage) was 10 fold, the “clearance rate, fold lower in LCN mice than in WT mice” value ([6]; AαC 13.6 mg/kg oral gavage) was 20 fold and the CL/F [6, 10] was 5920 ± 1530 mL/h. For the same molecule, the CL/F [6, 11] was 884 ± 378^a ml/h, the CL/F [6, 12] was 335 ± 146^b ml/h and the CL/F [6, 13] was 15300 ± 5690 mL/h. It also gave a CL/F [6, 14] of 6900 ± 1850 mL/h, an AUC(0-t) ([6]; male, C57BL/6, mouse, po, 1.36 mg/kg, AUC0-6h, LCN mice, AαC 1.36 mg/kg oral gavage, mean ± S.D. n=5) of 45.2 ± 16.9 ng·h/mL and an AUC(0-t) ([6]; male, C57BL/6, mouse, po, 1.36 mg/kg, AUC0-6h, WT mice, AαC 1.36 mg/kg oral gavage, mean ± S.D. n=5) of 2.5 ± 1.3 ng·h/mL. It also gave a Cmax ([6]; male, C57BL/6, mouse, po, 1.36 mg/kg, Cmax, LCN mice, AαC 1.36 mg/kg oral gavage, mean ± S.D. n=5) of 21.8 ± 13.6 ng/mL, a Cmax ([6]; male, C57BL/6, mouse, po, 1.36 mg/kg, Cmax, WT mice, AαC 1.36 mg/kg oral gavage, mean ± S.D. n=5) of 1.4 ± 0.9 ng/mL and a half-life ([6]; male, C57BL/6, mouse, po, 1.36 mg/kg, t1/2, LCN mice, AαC 1.36 mg/kg oral gavage, mean ± S.D. n=5) of 1.4 ± 0.5 h. It also gave a half-life ([6]; male, C57BL/6, mouse, po, 1.36 mg/kg, t1/2, WT mice, AαC 1.36 mg/kg oral gavage, mean ± S.D. n=5) of 1.7 ± 0.9 h, a Tmax ([6]; male, C57BL/6, mouse, po, 13.6 mg/kg) of 1 h and an AUC(0-t) ([6]; male, C57BL/6, mouse, po, 13.6 mg/kg, AUC0-24h, IECN mice, AαC 13.6 mg/kg oral gavage, mean ± S.D. n=5) of 68.4 ± 18.2 ng·h/mL. It also gave an AUC(0-t) ([6]; male, C57BL/6, mouse, po, 13.6 mg/kg, AUC0-24h, LCN mice, AαC 13.6 mg/kg oral gavage, mean ± S.D. n=5) of 1360 ± 595 ng·h/mL, an AUC(0-t) ([6]; male, C57BL/6, mouse, po, 13.6 mg/kg, AUC0-24h, WT mice, AαC 13.6 mg/kg oral gavage, mean ± S.D. n=5) of 57.6 ± 14.2 ng·h/mL and a Cmax ([6]; male, C57BL/6, mouse, po, 13.6 mg/kg, Cmax, IECN mice, AαC 13.6 mg/kg oral gavage, mean ± S.D. n=5) of 25.1 ± 12.4 ng/mL. It also gave a Cmax ([6]; male, C57BL/6, mouse, po, 13.6 mg/kg, Cmax, LCN mice, AαC 13.6 mg/kg oral gavage, mean ± S.D. n=5) of 272 ± 85.9 ng/mL, a Cmax ([6]; male, C57BL/6, mouse, po, 13.6 mg/kg, Cmax, WT mice, AαC 13.6 mg/kg oral gavage, mean ± S.D. n=5) of 26.5 ± 8.6 ng/mL and a half-life ([6]; male, C57BL/6, mouse, po, 13.6 mg/kg, t1/2, IECN mice, AαC 13.6 mg/kg oral gavage, mean ± S.D. n=5) of 3.9 ± 2.2 h. For the same molecule, the half-life ([6]; male, C57BL/6, mouse, po, 13.6 mg/kg, t1/2, LCN mice, AαC 13.6 mg/kg oral gavage, mean ± S.D. n=5) was 2.8 ± 0.3 h and the half-life ([6]; male, C57BL/6, mouse, po, 13.6 mg/kg, t1/2, WT mice, AαC 13.6 mg/kg oral gavage, mean ± S.D. n=5) was 3 ± 2.4 h.

For `O=C(O)[C@H]1O[C@@H](Nc2ccc3c(n2)[nH]c2ccccc23)[C@H](O)[C@@H](O)[C@@H]1O` [AαC-N^2-Glu, N^2-(β-1-glucosidurony1)-2-amino-9H-pyrido[2,3-b]indole], the “Cmax and AUC0-24h, fold higher in LCN than in WT mice” value ([6]; AαC 13.6 mg/kg by gavage, plasma (abstract)) was 4-24 fold, the “AUC 0-24 h in plasma, fold greater” value ([6]; AαC 13.6 mg/kg oral gavage) was ~ 6 fold and the “Cmax in plasma, fold greater in LCN mice than in WT mice” value ([6]; AαC 13.6 mg/kg oral gavage) was 4.5 fold. For the same molecule, the “clearance rate, fold lower in LCN mice than in WT mice” value ([6]; AαC 13.6 mg/kg oral gavage) was 6.6 fold, the AUC0-24h [6, 10] was 150 ± 30.0 ng·h/mL and the CL/F [6, 10] was 3180 ± 1031 mL/h. For the same molecule, the Cmax [6, 10] was 42.4 ± 15.4 ng/mL, the Tmax [6, 10] was 1.8 ± 1.2 h and the t1/2 [6, 10] was 2.5 ± 2.2 h. The AUC0-6h [6, 11] was 195 ±78.7^a h*ng/ml, the CL/F [6, 11] was 207 ± 100^a ml/h and the Cmax [6, 11] was 74.3 ± 48.6^a ng/ml. The t1/2 [6, 11] was 1.5 ± 0.8 h, the AUC0-24h [6, 12] was 803 ± 241^a h*ng/ml and the CL/F [6, 12] was 543 ± 148^a ml/h. For the same molecule, the Cmax [6, 12] was 186 ± 85.0^b ng/ml, the Tmax [6, 12] was 1.0 ± 0 h and the t1/2 [6, 12] was 2.1 ± 0.5 h. The AUC0-6h [6, 13] was 40.5 ± 16.6 ng·h/mL, the CL/F [6, 13] was 985 ± 372 mL/h and the Cmax [6, 13] was 19.2 ± 13.5 ng/mL. The t1/2 [6, 13] was 1.4 ± 0.7 h, the AUC0-24h [6, 14] was 128 ± 26.8 ng·h/mL and the CL/F [6, 14] was 3610 ± 566 mL/h. It also gave a Cmax [6, 14] of 40.2 ± 9.6 ng/mL, a Tmax [6, 14] of 1.0 ± 0 h and a t1/2 [6, 14] of 1.5 ± 0.7 h.
